Counter-ions that a name gives are not always drawn.
Assay: Accumulative release from porous silicon samples immersed in PBS buffer, measured by UV spectroscopic technique
Type: physicochemical
Conditions: PBS buffer at 37 C; for rate of release when the porous silicon wafer has been coated with cocoa butter, relative to the uncoated state: Method A, cocoa butter layer approx. 1 mm, FIG. 1
Experimental: A number of experiments were performed to show the effect of an excipient upon the release of a beneficial substance from the pores of porous silicon. Three substances were tested: chlorambucil, amitriptyline hydrochloride, neutral red. The excipient employed was cocoa butter. Three methods of combining the porous silicon, excipient, and beneficial substance, were carried out.
Method A comprises the steps of: (a) dissolving the beneficial substance in ethanol; (b) introducing the ethanolic solution of the beneficial substance to the surface of the porous silicon wafer and allowing it to pass into the pores; (c) applying heat to the porous silicon wafer by means of a hot plate to drive off the ethanol, (d) removing the excess beneficial substance, that has not entered the pores, by washing with ethanol; (e) dropping melted cocoa butter oil onto the porous side of the wafer, which has been loaded with a beneficial substance; and (f) allowing the wafer to cool at an ambient temperature of 20 C for approximately one hour, the cocoa butter forming a layer, approximately 1 mm in depth, that coats the surface of the porous silicon.
Method B comprises the steps: (a) dissolving the beneficial substance and excipient in ethanol; (b) introducing the ethanolic solution of the beneficial substance and excipient to the surface of the porous silicon wafer and allowing it to pass into the pores; (c) applying heat to the porous silicon wafer by means of a hot plate thereby driving off the ethanol, and (d) removing the excess beneficial substance and excipient, that have not entered the pores, by washing with ethanol. The porosified wafer, utilized for methods A and B, comprised mesoporous silicon having a porosity of 74%.
Method C comprises the steps: (a) fabricating particles of porous silicon by milling one or more porous silicon membranes; (b) combining the silicon particles with an ethanolic solution of the beneficial substance in a flask; (c) removing the ethanol by rotary evaporation; (d) mixing the beneficial substance loaded particles with excipient, (e) introducing the mixture to a cylindrical die, and (f) applying a uniaxial pressure of 0.5 ton to form a pellet. The porous silicon membrane, utilized for method C, comprises mesoporous silicon having a porosity of: 77%.
Samples of porous silicon that have been combined with beneficial substance and excipient by methods A, B, and C were then immersed in PBS buffer at 37 C, and the accumulative release was measured by means of a UV spectroscopic technique.
The uncoated samples, the results for which are shown in FIG. 1, were prepared, with the steps (a) to (d) of method A.

[1] = mesoporous silicon wafer, porosity 74%

| Structure (SMILES) | rate of release when the porous silicon wafer has been coated with cocoa butter, relative to the uncoated state [1] | rate of release for porous silicon loaded with beneficial substance alone, compared with solution loading with cocoa butter (Method B, mesoporous silicon wafer, porosity 74%, FIG. 2) | rate of release from pellet, excipient free sample versus pellet with equal mass of cocoa butter and porous silicon, during the first seven hours (Method C, compressed pellet, mesoporous silicon porosity 77%, FIG. 3) | rate of release from the excipient containing pellet beyond seven hours (Method C, pellet with equal mass of cocoa butter and porous silicon, FIG. 3) |
| --- | --- | --- | --- | --- |
| O=C(O)CCCc1ccc(N(CCCl)CCCl)cc1 [chlorambucil] | increases | faster than when the excipient is present | higher, from the excipient free sample | accelerates until it is higher than that of the excipient free sample |
| CN(C)CCC=C1c2ccccc2CCc2ccccc21 [amitriptyline hydrochloride] | slower | – | – | – |

— patent publication US20090137688A1, “PHARMACEUTICAL PRODUCT” (priority 2005, published 2009)
